Assays:
Progesterone receptor = molecular target: T1, Progesterone receptor (Homo sapiens, UniProt P06401); type: functional
T1 sequence (P06401 whole entry): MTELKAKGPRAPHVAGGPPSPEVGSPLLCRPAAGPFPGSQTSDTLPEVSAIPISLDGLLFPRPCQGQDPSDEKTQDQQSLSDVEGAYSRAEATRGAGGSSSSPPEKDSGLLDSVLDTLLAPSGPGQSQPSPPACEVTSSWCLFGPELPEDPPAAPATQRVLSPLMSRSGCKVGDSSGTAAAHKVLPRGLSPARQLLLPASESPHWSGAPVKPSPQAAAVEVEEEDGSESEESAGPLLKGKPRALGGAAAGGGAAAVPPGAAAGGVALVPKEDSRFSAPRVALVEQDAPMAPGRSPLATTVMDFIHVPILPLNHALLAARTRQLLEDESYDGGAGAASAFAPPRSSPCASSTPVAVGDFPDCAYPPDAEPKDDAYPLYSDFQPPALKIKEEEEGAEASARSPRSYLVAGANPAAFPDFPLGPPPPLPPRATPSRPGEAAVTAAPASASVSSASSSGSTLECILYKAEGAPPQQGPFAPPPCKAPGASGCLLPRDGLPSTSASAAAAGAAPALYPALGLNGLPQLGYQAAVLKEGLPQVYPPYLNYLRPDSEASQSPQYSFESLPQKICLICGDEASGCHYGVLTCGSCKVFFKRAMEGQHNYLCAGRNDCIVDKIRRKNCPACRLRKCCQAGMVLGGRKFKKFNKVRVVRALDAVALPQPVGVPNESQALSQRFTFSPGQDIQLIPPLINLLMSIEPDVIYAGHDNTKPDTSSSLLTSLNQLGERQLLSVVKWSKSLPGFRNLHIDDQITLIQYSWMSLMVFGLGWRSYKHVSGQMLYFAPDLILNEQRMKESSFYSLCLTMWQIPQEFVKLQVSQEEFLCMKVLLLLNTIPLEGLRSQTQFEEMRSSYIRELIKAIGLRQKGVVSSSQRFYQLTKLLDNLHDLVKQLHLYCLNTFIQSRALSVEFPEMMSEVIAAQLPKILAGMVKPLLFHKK

[1] = molecular target: T2, 5-hydroxytryptamine receptor 2C (Homo sapiens, UniProt P28335)
T2 sequence (P28335 whole entry): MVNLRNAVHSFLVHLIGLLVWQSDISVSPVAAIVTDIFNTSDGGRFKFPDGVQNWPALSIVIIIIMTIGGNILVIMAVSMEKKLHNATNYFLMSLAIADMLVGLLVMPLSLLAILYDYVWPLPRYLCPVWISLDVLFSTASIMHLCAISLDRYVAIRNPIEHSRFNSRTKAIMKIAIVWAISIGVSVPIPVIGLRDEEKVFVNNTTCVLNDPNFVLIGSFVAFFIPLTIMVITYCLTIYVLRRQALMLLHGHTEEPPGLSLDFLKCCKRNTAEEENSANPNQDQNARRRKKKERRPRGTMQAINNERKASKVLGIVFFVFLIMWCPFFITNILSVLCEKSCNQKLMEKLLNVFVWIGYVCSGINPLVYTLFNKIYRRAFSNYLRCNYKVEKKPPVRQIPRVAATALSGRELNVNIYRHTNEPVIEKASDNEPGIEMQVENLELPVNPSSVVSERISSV

Cannabinoid receptor 1 = Cannabinoid receptor 1 (Homo sapiens, UniProt P21554); type: functional, cell-based
Cannabinoid receptor 1, sequence (P21554 whole entry): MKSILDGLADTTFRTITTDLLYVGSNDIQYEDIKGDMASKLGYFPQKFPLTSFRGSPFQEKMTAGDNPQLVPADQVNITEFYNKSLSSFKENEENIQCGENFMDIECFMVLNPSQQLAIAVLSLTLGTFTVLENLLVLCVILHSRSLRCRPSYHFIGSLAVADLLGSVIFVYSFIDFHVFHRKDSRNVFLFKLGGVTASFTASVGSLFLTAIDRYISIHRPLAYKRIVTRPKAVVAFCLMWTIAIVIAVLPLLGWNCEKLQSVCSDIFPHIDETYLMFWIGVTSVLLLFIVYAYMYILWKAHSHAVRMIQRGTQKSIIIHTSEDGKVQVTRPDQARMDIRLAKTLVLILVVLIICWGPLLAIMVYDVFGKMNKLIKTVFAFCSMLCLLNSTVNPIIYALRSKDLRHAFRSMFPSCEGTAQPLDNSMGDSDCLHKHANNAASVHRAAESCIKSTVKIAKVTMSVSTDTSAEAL

[2] = molecular target: 3',5'-cyclic-AMP phosphodiesterase 4D (Homo sapiens, UniProt Q08499); type: functional
3',5'-cyclic-AMP phosphodiesterase 4D, sequence (Q08499 whole entry): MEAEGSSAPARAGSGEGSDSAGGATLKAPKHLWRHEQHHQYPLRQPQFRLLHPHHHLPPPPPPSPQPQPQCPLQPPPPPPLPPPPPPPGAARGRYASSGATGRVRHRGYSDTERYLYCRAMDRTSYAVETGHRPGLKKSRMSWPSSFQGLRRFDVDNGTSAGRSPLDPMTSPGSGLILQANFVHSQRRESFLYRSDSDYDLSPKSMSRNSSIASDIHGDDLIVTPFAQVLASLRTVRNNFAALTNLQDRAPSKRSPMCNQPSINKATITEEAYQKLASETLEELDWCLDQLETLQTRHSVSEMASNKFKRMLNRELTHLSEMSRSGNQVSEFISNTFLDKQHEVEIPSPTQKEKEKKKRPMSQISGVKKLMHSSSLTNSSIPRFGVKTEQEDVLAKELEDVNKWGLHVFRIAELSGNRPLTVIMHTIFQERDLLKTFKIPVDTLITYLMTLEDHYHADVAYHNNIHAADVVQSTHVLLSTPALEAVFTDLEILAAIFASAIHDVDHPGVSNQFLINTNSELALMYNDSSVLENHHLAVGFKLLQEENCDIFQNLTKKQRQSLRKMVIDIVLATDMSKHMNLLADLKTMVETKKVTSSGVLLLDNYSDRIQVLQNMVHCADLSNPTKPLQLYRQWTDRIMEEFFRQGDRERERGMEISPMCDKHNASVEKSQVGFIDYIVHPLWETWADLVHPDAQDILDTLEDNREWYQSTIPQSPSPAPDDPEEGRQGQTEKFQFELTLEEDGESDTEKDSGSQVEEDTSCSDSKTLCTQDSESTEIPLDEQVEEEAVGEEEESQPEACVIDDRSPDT

[3] = molecular target: 5-hydroxytryptamine receptor 2B (Homo sapiens, UniProt P41595); type: functional, cell-based
5-hydroxytryptamine receptor 2B, sequence (P41595 whole entry): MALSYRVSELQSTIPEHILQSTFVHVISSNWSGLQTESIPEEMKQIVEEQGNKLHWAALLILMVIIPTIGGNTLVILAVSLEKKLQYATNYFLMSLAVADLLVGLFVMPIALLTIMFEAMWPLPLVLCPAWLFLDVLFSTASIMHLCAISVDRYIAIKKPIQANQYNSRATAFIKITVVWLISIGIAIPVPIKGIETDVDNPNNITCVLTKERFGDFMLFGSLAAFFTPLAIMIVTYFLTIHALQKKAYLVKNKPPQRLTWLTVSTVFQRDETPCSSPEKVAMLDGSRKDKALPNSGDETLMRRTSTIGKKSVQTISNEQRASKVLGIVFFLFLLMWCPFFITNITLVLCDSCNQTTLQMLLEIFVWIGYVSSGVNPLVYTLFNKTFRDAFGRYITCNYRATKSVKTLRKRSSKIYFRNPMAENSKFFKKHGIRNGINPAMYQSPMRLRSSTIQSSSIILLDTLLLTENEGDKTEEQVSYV

[4] = molecular target: Growth hormone secretagogue receptor type 1 (Homo sapiens, UniProt Q92847)
Growth hormone secretagogue receptor type 1, sequence (Q92847 whole entry): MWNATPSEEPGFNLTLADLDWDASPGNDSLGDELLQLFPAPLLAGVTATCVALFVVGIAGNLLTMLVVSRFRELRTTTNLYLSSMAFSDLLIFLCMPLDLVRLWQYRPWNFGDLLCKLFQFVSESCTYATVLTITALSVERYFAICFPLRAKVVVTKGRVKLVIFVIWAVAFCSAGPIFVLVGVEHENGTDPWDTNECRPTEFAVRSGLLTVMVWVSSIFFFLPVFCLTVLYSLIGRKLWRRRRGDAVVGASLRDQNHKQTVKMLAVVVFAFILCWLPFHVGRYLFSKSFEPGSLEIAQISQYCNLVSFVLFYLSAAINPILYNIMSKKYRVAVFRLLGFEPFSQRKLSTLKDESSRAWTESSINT

[5] = molecular target: Gamma-aminobutyric acid receptor subunit alpha-1 (Rattus norvegicus, UniProt P62813); type: functional
Gamma-aminobutyric acid receptor subunit alpha-1, sequence (P62813 whole entry): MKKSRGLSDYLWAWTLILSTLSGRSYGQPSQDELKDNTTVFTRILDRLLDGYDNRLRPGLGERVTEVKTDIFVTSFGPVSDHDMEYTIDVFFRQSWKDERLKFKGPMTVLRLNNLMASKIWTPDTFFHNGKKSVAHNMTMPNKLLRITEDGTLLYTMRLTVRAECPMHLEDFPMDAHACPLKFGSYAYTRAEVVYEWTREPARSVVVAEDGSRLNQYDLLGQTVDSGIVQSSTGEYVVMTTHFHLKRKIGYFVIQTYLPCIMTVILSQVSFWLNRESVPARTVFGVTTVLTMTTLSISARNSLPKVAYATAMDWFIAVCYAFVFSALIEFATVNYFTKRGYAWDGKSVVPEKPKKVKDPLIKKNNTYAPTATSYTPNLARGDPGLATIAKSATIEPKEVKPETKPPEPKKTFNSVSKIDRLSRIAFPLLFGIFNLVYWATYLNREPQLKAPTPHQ

Adenosine receptor A3 [6] = molecular target: T3, Adenosine receptor A3 (Homo sapiens, UniProt P0DMS8)
T3 sequence (P0DMS8 whole entry): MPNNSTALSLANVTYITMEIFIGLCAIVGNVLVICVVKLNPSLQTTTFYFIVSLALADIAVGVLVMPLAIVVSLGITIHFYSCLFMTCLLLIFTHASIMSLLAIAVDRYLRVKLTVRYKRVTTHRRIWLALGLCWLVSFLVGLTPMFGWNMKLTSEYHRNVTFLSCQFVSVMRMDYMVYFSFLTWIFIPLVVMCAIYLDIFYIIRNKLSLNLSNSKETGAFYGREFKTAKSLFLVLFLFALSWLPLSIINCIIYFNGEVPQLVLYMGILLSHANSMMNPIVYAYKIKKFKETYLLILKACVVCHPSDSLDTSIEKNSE

Motilin receptor = Motilin receptor (Homo sapiens, UniProt O43193)
Motilin receptor, sequence (O43193 whole entry): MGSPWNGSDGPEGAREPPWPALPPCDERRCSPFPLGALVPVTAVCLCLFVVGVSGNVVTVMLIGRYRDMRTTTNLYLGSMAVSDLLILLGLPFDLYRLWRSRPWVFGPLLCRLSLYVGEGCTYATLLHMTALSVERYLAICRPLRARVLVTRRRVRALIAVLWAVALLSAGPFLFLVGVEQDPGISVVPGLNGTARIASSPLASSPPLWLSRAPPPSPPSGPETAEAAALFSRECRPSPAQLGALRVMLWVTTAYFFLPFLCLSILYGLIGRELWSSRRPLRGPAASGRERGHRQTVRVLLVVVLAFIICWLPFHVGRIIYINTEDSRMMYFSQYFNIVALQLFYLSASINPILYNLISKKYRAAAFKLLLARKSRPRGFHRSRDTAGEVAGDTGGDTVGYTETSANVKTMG

Vasopressin V1a receptor = Vasopressin V1a receptor (Homo sapiens, UniProt P37288)
Vasopressin V1a receptor, sequence (P37288 whole entry): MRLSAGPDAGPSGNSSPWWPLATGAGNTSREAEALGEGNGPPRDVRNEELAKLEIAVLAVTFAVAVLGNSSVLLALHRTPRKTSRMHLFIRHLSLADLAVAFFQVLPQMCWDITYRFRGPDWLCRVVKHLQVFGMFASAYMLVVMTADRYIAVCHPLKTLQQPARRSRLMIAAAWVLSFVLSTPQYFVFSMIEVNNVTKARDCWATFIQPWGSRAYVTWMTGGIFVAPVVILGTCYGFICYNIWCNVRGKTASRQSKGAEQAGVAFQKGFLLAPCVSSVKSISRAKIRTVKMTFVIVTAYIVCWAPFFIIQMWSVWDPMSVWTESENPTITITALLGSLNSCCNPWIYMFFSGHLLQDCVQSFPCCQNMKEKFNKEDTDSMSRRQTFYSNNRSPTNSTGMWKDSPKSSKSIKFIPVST

[7] = molecular target: T4, Equilibrative nucleoside transporter 1 (Homo sapiens, UniProt Q99808)
T4 sequence (Q99808 whole entry): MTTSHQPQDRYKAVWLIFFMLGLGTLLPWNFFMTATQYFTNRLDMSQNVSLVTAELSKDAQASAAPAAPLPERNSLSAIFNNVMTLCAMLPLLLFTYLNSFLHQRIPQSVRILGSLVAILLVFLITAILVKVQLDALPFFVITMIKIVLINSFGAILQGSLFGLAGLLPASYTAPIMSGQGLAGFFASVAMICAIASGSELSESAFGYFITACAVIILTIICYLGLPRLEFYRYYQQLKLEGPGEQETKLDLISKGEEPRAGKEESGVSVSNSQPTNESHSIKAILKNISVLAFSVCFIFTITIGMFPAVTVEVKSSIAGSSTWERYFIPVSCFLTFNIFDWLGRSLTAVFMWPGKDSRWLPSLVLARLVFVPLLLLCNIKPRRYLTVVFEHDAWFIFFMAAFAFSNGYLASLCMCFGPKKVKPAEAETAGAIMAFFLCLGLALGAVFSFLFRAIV

Adenosine receptor A2a = Adenosine receptor A2a (Homo sapiens, UniProt P29274)
Adenosine receptor A2a, sequence (P29274 whole entry): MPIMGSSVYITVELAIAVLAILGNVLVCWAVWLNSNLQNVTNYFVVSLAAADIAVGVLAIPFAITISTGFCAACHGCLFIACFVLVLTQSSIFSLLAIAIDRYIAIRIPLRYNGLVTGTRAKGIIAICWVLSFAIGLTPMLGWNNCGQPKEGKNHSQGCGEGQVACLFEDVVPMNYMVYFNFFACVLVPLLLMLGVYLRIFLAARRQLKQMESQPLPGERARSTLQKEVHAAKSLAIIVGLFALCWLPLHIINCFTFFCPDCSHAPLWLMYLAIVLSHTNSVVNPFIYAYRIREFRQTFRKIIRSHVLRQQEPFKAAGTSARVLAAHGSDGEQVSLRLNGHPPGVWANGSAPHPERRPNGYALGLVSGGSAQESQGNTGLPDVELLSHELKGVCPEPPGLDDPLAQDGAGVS

Adenosine receptor A3 [8] = molecular target: T3, Adenosine receptor A3; remark: listed apart in the source
Histamine H2 receptor = Histamine H2 receptor (Homo sapiens, UniProt P25021); type: functional, cell-based
Histamine H2 receptor, sequence (P25021 whole entry): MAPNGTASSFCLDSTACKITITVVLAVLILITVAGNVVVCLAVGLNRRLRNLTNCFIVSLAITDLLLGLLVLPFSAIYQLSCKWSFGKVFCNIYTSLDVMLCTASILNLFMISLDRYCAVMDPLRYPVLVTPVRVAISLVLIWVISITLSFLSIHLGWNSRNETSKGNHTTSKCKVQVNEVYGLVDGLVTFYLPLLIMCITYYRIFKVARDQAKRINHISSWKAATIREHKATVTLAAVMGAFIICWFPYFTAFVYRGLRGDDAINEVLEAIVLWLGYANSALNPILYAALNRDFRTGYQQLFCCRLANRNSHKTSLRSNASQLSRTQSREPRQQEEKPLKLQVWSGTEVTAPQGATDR
Also: assay procedure not described here.

Row | AC50 (Progesterone receptor) [µM] | AC50 [4] [µM] | AC50 (Adenosine receptor A3 [6]) [µM] | AC50 (Motilin receptor) [µM] | AC50 (Vasopressin V1a receptor) [µM] | AC50 [7] [µM] | AC50 (Adenosine receptor A2a) [µM] | AC50 (Histamine H2 receptor) [µM] | SMILES | AC50 [1] [µM] | AC50 (Cannabinoid receptor 1) [µM] | AC50 [2] [µM] | AC50 [3] [µM] | AC50 [5] [µM] | AC50 (Adenosine receptor A3 [8]) [µM]
1 | > 30 | > 30 | > 30 | > 30 | > 30 | > 30 | > 30 | – | CC(S)C(=O)NCC(=O)O (stereo unspecified) [TIOPRONIN] | > 30 | > 30 | > 30 | > 30 | > 30 | –
2 | – | – | – | – | – | – | – | – | CC(CCc1ccccc1)NCC(O)c1ccc(O)c(C(N)=O)c1 (stereo unspecified) [LABETALOL] | – | – | – | – | – | > 30
3 | – | – | – | – | – | – | – | – | C[C@]1(Cn2ccnn2)[C@H](C(=O)O)N2C(=O)C[C@H]2S1(=O)=O [TAZOBACTAM] | – | – | – | – | – | > 30
4 | > 30 | > 30 | > 30 | > 30 | > 30 | > 30 | > 30 | – | CC(C)(C)NCC(O)c1cc(O)cc(O)c1 (stereo unspecified) [TERBUTALINE] | – | – | – | – | – | –
5 | 1.7 | 7.2 | 8.4 | 7.3 | > 10 | 5 | 5.3 | > 30 | CCN(CC)CCNC(=O)c1c(C)[nH]c(/C=C2\C(=O)Nc3ccc(F)cc32)c1C [SUNITINIB] | 2.25 | > 30 | 9.8 | > 30 | > 30 | –
6 | – | – | – | – | – | – | – | – | CC1=C(/C=C/C(C)=C/C=C/C(C)=C/C(=O)O)C(C)(C)CCC1 [TRETINOIN] | – | – | – | – | – | 8.21
7 | > 30 | 10 | 8.1 | 22 | > 30 | > 30 | > 30 | > 30 | C[C@@H](NCCCc1cccc(C(F)(F)F)c1)c1cccc2ccccc12 | 0.73 | > 30 | > 30 | > 30 | > 30 | –

Row | SMILES | AC50 (Progesterone receptor) [µM] | AC50 [4] [µM] | AC50 (Adenosine receptor A3 [6]) [µM] | AC50 (Motilin receptor) [µM] | AC50 (Vasopressin V1a receptor) [µM] | AC50 [7] [µM] | AC50 (Adenosine receptor A2a) [µM] | AC50 (Histamine H2 receptor) [µM] | AC50 [1] [µM] | AC50 (Cannabinoid receptor 1) [µM] | AC50 [2] [µM] | AC50 [3] [µM] | AC50 [5] [µM] | AC50 (Adenosine receptor A3 [8]) [µM]
8 | CCN1CCN(Cc2ccc(Nc3ncc(F)c(-c4cc(F)c5nc(C)n(C(C)C)c5c4)n3)nc2)CC1 [ABEMACICLIB] | > 30 | > 30 | > 30 | > 30 | > 30 | > 30 | > 30 | – | > 30 | > 30 | 3.2 | > 30 | > 30 | –
9 | COc1cc2nccc(Oc3ccc(NC(=O)C4(C(=O)Nc5ccc(F)cc5)CC4)cc3)c2cc1OC [CABOZANTINIB] | > 30 | > 30 | 3.7 | > 30 | > 30 | > 30 | > 30 | – | > 30 | > 30 | 10 | > 30 | > 30 | 0.379
10 | OC[C@H]1O[C@@](CO)(O[C@H]2O[C@H](CO)[C@@H](O)[C@H](O)[C@H]2O)[C@@H](O)[C@@H]1O [SUCROSE] | > 30 | > 30 | > 30 | > 30 | > 30 | > 30 | > 30 | > 30 | > 30 | > 30 | > 30 | > 30 | > 30 | –
